Values quoted from earlier work in patent US11235023B2, “Beta-hairpin peptidomimetic with elastase inhibitory activity and aerosol dosage forms thereof” (POLYPHOR AG, priority 2016, dated 2022).

Tests used:
elastase = settings: nasal instillation, CD-1 mice; cited from earlier work
neutrophil elastase = target: T1, neutrophil elastase (Mus musculus, UniProt Q3UP87); settings: mouse model of neutrophil allergen challenge; cited from earlier work
T1 sequence (Q3UP87 27-265): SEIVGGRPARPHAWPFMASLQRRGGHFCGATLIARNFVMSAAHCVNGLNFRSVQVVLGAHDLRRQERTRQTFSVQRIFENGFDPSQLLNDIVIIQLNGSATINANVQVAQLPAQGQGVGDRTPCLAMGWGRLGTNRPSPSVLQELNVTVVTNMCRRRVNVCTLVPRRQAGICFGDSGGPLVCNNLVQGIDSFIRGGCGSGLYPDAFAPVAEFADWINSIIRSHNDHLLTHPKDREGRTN

Compound	Protection against elastase-mediated injury (elastase)	Effect on airway hyperresponsiveness and inflammation (neutrophil elastase)
rhalpha1PI: recombinant form of the elastase inhibitor alpha-1-proteinase inhibitor (alpha1PI)	highly protective	
CC(C)(C)C(=O)Oc1ccc(S(=O)(=O)Nc2ccccc2C(=O)NCC(=O)O)cc1 [sivelelstat]		attenuates airway hyperresponsiveness and inflammation
